Each structure is given as a SMILES string.

Data set [1] is filed under the species Cavia porcellus.
Description: Elevation of the threshold alternating current to induce arrhythmia in isolated guinea pig heart.
Data set [2] in a line: Drug induced phase transition temperature with DPPA liposome. Format: functional.
Data set [3] in a line: physchem. The settings on record: octanol/water.
Description: Partition coefficient (logP) (HPLC)
Data set [4] in a line: physchem.
Description: Dissociation constant (pKa)
The species named for data set [5] is Cavia porcellus. The data set is described as follows: Concentration required to elevate the threshold of alternating current to induce arrhythmia in isolated guinea pig heart by 50%; Vl = Very low activity. Format: functional.
The species named for data set [6] is Bos taurus. Put plainly: Concentration at which Ca+ binding to phosphatidylserine monolayers is reduced to 50% of control. In kind it is functional.
The species named for data set [7] is Bos taurus. The data set is described as follows: Concentration at which Ca+ binding to phosphatidylserine monolayers from bovine brain is reduced to 50% of control. In kind it is functional.
Data set [8] is filed under the species Cavia porcellus. The data set is described as follows: Concentration required to elevate the threshold of alternating current to induce arrhythmia in isolated guinea pig heart by 50%; Vl = very low activity. Format: functional.
The species named for data set [9] is Cavia porcellus. The data set is described as follows: Concentration required to elevate the threshold of alternating current to induce arrhythmia in isolated guinea pig heart by 50%; VL = Very low activity. In kind it is functional.

As a reminder, the logP is a log measure of how a compound divides between an organic and an aqueous phase. Lower therefore signals a more hydrophilic compound. Usually pKa stands for the pH at which an ionisable group is half protonated. For `CCCc1ccc(CCCN(C)C)cc1.Cl`, in the data set listed under Cavia porcellus [1], the “Log AC50” value was 4.85 uM. In data set [2], this compound yielded a Tt of 295 k. In the data set “physchem [3]”, this compound showed a logP of 2.89. Further, in “physchem [4]”, the pKa was determined as 10.5.
In the case of `CN(C)CCCc1ccc(O)c(Cl)c1.Cl`, in the data set filed under Cavia porcellus [1], the “Log AC50” value came to 3.82 uM. Further, the Tt in [2] turned out to be 294 k. The same compound yielded a logP in the data set “physchem [3]” of 0.97.
As to `Cc1ccc(CCCN(C)C)cc1.Cl`, the “Log AC50” value in the data set listed under Cavia porcellus [1] came out at 4.02 uM. The compound further yielded a Tt in [2] of 303 k. In the data set “physchem [3]”, this compound returned a logP of 2. In the data set “physchem [4]”, this compound gave a pKa of 10.8.
With `CC(C)c1ccc(CCCN(C)C)cc1.Cl`, the “Log AC50” value in the data set listed under Cavia porcellus [1] was determined as 4.22 uM. This compound returned a Tt in [2] of 299 k. The logP in the data set “physchem [3]” amounted to 2.75. This compound also showed a pKa in the data set “physchem [4]” of 10.5.
For the compound `COc1ccc(-c2ccc(CCC[N+](C)(C)C)cc2)cc1`, in the data set “physchem [3]”, the log partition coefficient (logP) is 2.17. The “Log AC50” value in the data set filed under Cavia porcellus [5] was “Very low activity”.
In the case of `CN(C)CCCc1ccc(-c2ccc(O)cc2)cc1.Cl`, the “Log AC50” value in the data set listed under Cavia porcellus [1] worked out at 4.43 uM. This compound also showed a Tt in [2] of 349 k. The compound further showed a logP in “physchem [3]” of 2.1. Moreover, the “Log IC50” value in the data set listed under Bos taurus [6] is 4.4 uM. Also, the pKa in “physchem [4]” is 9.32.
With `CN(C)CCC(c1ccccc1)c1ccccc1.Cl`, the “Log AC50” value in the data set listed under Cavia porcellus [1] amounted to 4.37 uM. In data set [2], this compound registered a Tt of 308 k. In the data set “physchem [3]”, this compound displayed a log partition coefficient (logP) of 2.76. In addition, in the data set filed under Bos taurus [6], the “Log IC50” value is given as 4.85 uM. The compound further yielded a pKa in “physchem [4]” of 10.
Regarding `CN(C)CCCc1ccc(Cl)cc1.Cl`, the “Log AC50” value in the data set listed under Cavia porcellus [1] was determined as 4.31 uM. Also, the Tt in data set [2] came to 302 k. The compound also returned a logP in “physchem [3]” of 2.21. For the same compound, in the data set filed under Bos taurus [7], the “Log IC50” value amounted to 3.85 uM. Besides, the pKa in the data set “physchem [4]” worked out at 10.6.
In the case of `CN(C)CCCc1ccc(N)cc1.Cl`, in the data set listed under Cavia porcellus [1], the “Log AC50” value is listed as 3 uM. In addition, in “physchem [3]”, the logP was found to be 0.12. The compound further displayed a pKa in the data set “physchem [4]” of 10.9.
`CN(C)CCCc1ccc([N+](=O)[O-])cc1.Cl` showed a Tt in data set [2] of 307 k. In “physchem [3]”, this compound returned a logP of 1.5. For the same compound, the “Log IC50” value in the data set filed under Bos taurus [6] worked out at 4.15 uM. The pKa in “physchem [4]” came to 10.7. Further, in the data set listed under Cavia porcellus [8], the “Log AC50” value was “Very low activity”.
`CN(C)CCCc1ccccc1.Cl`: the “Log AC50” value in the data set filed under Cavia porcellus [1] is given as 3.55 uM. The compound also returned a Tt in data set [2] of 3.8 k. In the data set “physchem [3]”, the logP came to 1.5. The “Log IC50” value in the data set listed under Bos taurus [6] is on record as 3 uM. The pKa in “physchem [4]” came to 11.
For the compound `COc1ccc(-c2ccc(CCCN(C)C)cc2)cc1.Cl`, the “Log AC50” value in the data set filed under Cavia porcellus [1] is on record as 4.96 uM. The Tt in [2] was 296 k. In “physchem [3]”, this compound had a logP of 2.95. Besides, the “Log IC50” value in the data set listed under Bos taurus [6] came out at 5.4 uM. In the data set “physchem [4]”, the pKa was 9.85.
Turning to `CN(C)CCC(c1ccccc1)c1ccc(-c2ccccc2)cc1` (centres undefined), the Tt in data set [2] turned out to be 294 k. The logP in the data set “physchem [3]” is 3.36. The compound further had a pKa in the data set “physchem [4]” of 9.85.
For `CN(C)CCCc1ccc(O)cc1.Cl`, the “Log AC50” value in the data set filed under Cavia porcellus [1] was determined as 3.29 uM. Besides, the Tt in data set [2] amounted to 314 k. For the same compound, the logP in the data set “physchem [3]” is 0.35. Also, the “Log IC50” value in the data set listed under Bos taurus [6] was 2.72 uM.
Compound `C[N+](C)(C)CCCc1ccccc1.[Cl-]` displayed a Tt in data set [2] of 307 k. For the same compound, in the data set “physchem [3]”, the logP came to 0.44. In addition, the “Log AC50” value in the data set listed under Cavia porcellus [5] is “Very low activity”. For the same compound, the “Log IC50” value in the data set filed under Bos taurus [6] is 3.4 uM.
As to `CN(C)CCCc1ccc(C(C)(C)C)cc1.Cl`, the “Log AC50” value in the data set filed under Cavia porcellus [1] was determined as 4.52 uM. The same compound registered a Tt in data set [2] of 297 k. Besides, in “physchem [3]”, the log partition coefficient (logP) is 2.96. Also, the “Log IC50” value in the data set listed under Bos taurus [6] is listed as 5.4 uM. The same compound came in with a pKa in “physchem [4]” of 10.
`CN(C)CCCc1ccc(-c2ccccc2)cc1.Cl`: the “Log AC50” value in the data set listed under Cavia porcellus [1] turned out to be 4.8 uM. The Tt in data set [2] stood at 285 k. This compound gave a logP in the data set “physchem [3]” of 2.99. Besides, the “Log IC50” value in the data set filed under Bos taurus [6] was 5.4 uM. The compound also gave a pKa in the data set “physchem [4]” of 9.88.
Take `CCc1ccc(CCCN(C)C)cc1.Cl`: in the data set listed under Cavia porcellus [1], the “Log AC50” value stood at 3.94 uM. Further, the Tt in data set [2] is 300 k. This compound displayed a logP in “physchem [3]” of 2.45. Also, in “physchem [4]”, the pKa is 10.6.
On to `CCOc1ccc(-c2ccc(CCCN(C)C)cc2)cc1.Cl`, for which the “Log AC50” value in the data set listed under Cavia porcellus [1] is 4.8 uM. Also, the logP in the data set “physchem [3]” worked out at 3.3. Besides, the pKa in the data set “physchem [4]” stood at 9.82.
In the same order, the values of `COc1ccc(CCCN(C)C)cc1Cl.Cl` are 4.44 uM, 1.92 and 10.8.
In the data set “physchem [3]”, `CN(C)CCCc1ccc(Br)cc1` yielded a logP of 2.37. Further, the pKa in the data set “physchem [4]” amounted to 10.6.
`CN(C)CCCc1ccc(-c2ccc(Cl)cc2)cc1.Cl`: in the data set listed under Cavia porcellus [1], the “Log AC50” value is 5.7 uM. Further, the logP in the data set “physchem [3]” is 3.45. The same compound had a pKa in “physchem [4]” of 9.96.
`CN(C)CC(Cc1ccccc1)c1ccccc1.Cl` (centres undefined): the “Log AC50” value in the data set listed under Cavia porcellus [1] amounted to 4.13 uM. The same compound displayed a Tt in data set [2] of 309 k. This compound also showed a logP in “physchem [3]” of 2.59. In “physchem [4]”, this compound displayed a pKa of 9.93.
With `CN(C)CCCc1ccc2ccccc2c1.Cl`, the “Log AC50” value in the data set listed under Cavia porcellus [1] is recorded as 4.52 uM. The compound further showed a Tt in data set [2] of 297 k. In the data set “physchem [3]”, this compound displayed a logP of 2.62. In the data set filed under Bos taurus [6], the “Log IC50” value worked out at 4.35 uM. This compound showed a pKa in “physchem [4]” of 10.3.
In the case of `CN(C)CCCc1cccnc1.Cl`, the logP in “physchem [3]” is 0.57. For the same compound, in the data set listed under Cavia porcellus [9], the “Log AC50” value is on record as “Very low activity”. In the data set filed under Bos taurus [6], the “Log IC50” value is on record as 3.6 uM. The pKa in the data set “physchem [4]” amounted to 10.7.

(Values after ChEMBL document CHEMBL1132180, “Synthesis, pharmacological and biophysical characterization, and membrane-interaction QSAR analysis of cationic amphiphilic model compounds” (J Med Chem, 1999).)
